Laboratory results from US4882349A, “Pyrrolacetic amides having antiinflammatory activity” (priority 1982, dated 1989).

Tests used:
[1] = test system: phenyl-p-quinone-induced writhing (abdominal contractions); assay: phenylquinone-induced writhing test (analgesic activity), compound given 30 min before phenyl-p-quinone; type: in vivo, male Wistar rats
Outline: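 Male Wistar rats (110±5 g), fasted 14 h, received test compounds orally or parenterally in 0.5% CMC/saline vehicle 30 min before 2 ml of 0.36% phenyl-p-quinone in 5% ethanol.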

[2] = test system: mucus secreted by the respiratory airway; assay: antisecretory activity, respiratory mucus secretion; type: in vivo, albino male New Zealand rabbits; details: vs control group
Outline: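 Male New Zealand rabbits, groups of four, urethane-anaesthetised (1.1 g/kg i.p.) with tracheal Y cannula breathing 100%-humidity air at 39° C. Mucus collected and measured 3 and 6 h post-dose; change expressed as percent difference from vehicle controls.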

in vivo [3] = details: mouse
in vivo [4] = details: rat
[5] = test system: cough provoked by mechanical stimulation of the tracheal bifurcation mucosa; assay: antitussive activity, mechanically provoked coughing; type: in vivo, albino Guinea-pigs; details: 1 h after administration
Outline: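 Albino guinea-pigs (300 g) with a tracheal Y cannula; coughing provoked by mechanically stimulating the tracheal bifurcation mucosa with a boar's hair.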

[6] = test system: carrageenin-induced oedema; assay: carrageenin-induced oedema test (anti-inflammatory activity); type: in vivo, albino male Wistar rats
[7] = 25 mg/Kg, Table IV (route not given), 2 h
[8] = 25 mg/Kg, Table IV (route not given), 4 h
[9] = 25 mg/Kg, Table IV (route not given), 6 h
[10] = 25 mg/Kg, Table IV (route not given), 24 h
[11] = 25 mg/Kg, Table IV (route not given), 48 h
[12] = 25 mg/Kg, Table IV (route not given), 72 h
[13] = 50 mg/Kg, Table IV (route not given), 2 h
[14] = 50 mg/Kg, Table IV (route not given), 4 h
[15] = 50 mg/Kg, Table IV (route not given), 6 h
[16] = 50 mg/Kg, Table IV (route not given), 24 h
[17] = 50 mg/Kg, Table IV (route not given), 48 h
[18] = 50 mg/Kg, Table IV (route not given), 72 h
[19] = 100 mg/Kg, Table IV (route not given), 2 h
[20] = 100 mg/Kg, Table IV (route not given), 4 h
[21] = 100 mg/Kg, Table IV (route not given), 6 h
[22] = 100 mg/Kg, Table IV (route not given), 24 h
[23] = 100 mg/Kg, Table IV (route not given), 48 h
[24] = 100 mg/Kg, Table IV (route not given), 72 h

For `Cc1ccc(C(=O)c2ccc(CC(=O)N3CCOCC3)n2C)cc1` [Compound 3-a, 1-methyl-5-p-toluoylpyrrole-2-N-(4-morpholinyl) acetamide], the “% Protection” value ([1]; 5 mg/Kg i.p.) was 18.0%, the “% Protection” value ([1]; 5 mg/Kg per os) was 16.0% and the “% Protection” value ([1]; 10 mg/Kg i.p.) was 48.0%. For the same molecule, the “% Protection” value ([1]; 10 mg/Kg per os) was 39.0%, the “% Protection” value ([1]; 20 mg/Kg i.p.) was 76.0% and the “% Protection” value ([1]; 20 mg/Kg per os) was 65.0%. The “% difference in mucus secretion” value ([2]; 50 mg/Kg i.p., 3 h) was -10%, the “% difference in mucus secretion” value ([2]; 50 mg/Kg i.p., 6 h) was -7% and the “% difference in mucus secretion” value ([2]; 50 mg/Kg per os, 3 h) was -7%. The “% difference in mucus secretion” value ([2]; 50 mg/Kg per os, 6 h) was -8%, the “% difference in mucus secretion” value ([2]; 75 mg/Kg i.p., 3 h) was -20% and the “% difference in mucus secretion” value ([2]; 75 mg/Kg i.p., 6 h) was -18%. The “% difference in mucus secretion” value ([2]; 75 mg/Kg per os, 3 h) was -15%, the “% difference in mucus secretion” value ([2]; 75 mg/Kg per os, 6 h) was -10% and the “% difference in mucus secretion” value ([2]; 100 mg/Kg i.p., 3 h) was -38%. For the same molecule, the “% difference in mucus secretion” value ([2]; 100 mg/Kg i.p., 6 h) was -29%, the “% difference in mucus secretion” value ([2]; 100 mg/Kg per os, 3 h) was -32% and the “% difference in mucus secretion” value ([2]; 100 mg/Kg per os, 6 h) was -25%. For the same molecule, the LD50 (in vivo [3]; ip) was 1500 mg/kg, the LD50 (in vivo [3]; po) was over 2000 mg/kg and the LD50 (in vivo [4]; ip) was 1370 mg/kg. The LD50 (in vivo [4]; po) was over 2400 mg/kg, the “% inhibition, cough amplitude” value ([5]; 50 mg/Kg i.p.) was 20% and the “% inhibition, cough frequency” value ([5]; 50 mg/Kg i.p.) was 15%. The “% inhibition, cough amplitude” value ([5]; 50 mg/Kg per os) was 15%, the “% inhibition, cough frequency” value ([5]; 50 mg/Kg per os) was 16% and the “% inhibition, cough amplitude” value ([5]; 75 mg/Kg i.p.) was 30%. The “% inhibition, cough frequency” value ([5]; 75 mg/Kg i.p.) was 16%, the “% inhibition, cough amplitude” value ([5]; 75 mg/Kg per os) was 30% and the “% inhibition, cough frequency” value ([5]; 75 mg/Kg per os) was 18%. For the same molecule, the “% inhibition, cough amplitude” value ([5]; 100 mg/Kg i.p.) was 40%, the “% inhibition, cough frequency” value ([5]; 100 mg/Kg i.p.) was 56% and the “% inhibition, cough amplitude” value ([5]; 100 mg/Kg per os) was 35%. The “% inhibition, cough frequency” value ([5]; 100 mg/Kg per os) was 45%, the oedema % inhibition ([6]; 25 mg/Kg per os, 2 h) was 27.1% and the oedema % inhibition ([6]; 25 mg/Kg per os, 4 h) was 29.0%. For the same molecule, the oedema % inhibition ([6]; 25 mg/Kg per os, 6 h) was 32.3%, the oedema % inhibition ([6]; 25 mg/Kg per os, 24 h) was 7.1% and the oedema % inhibition ([6]; 25 mg/Kg per os, 48 h) was 0.0%. It also gave an oedema % inhibition ([6]; 25 mg/Kg per os, 72 h) of 0.0%, an oedema % inhibition [6, 7] of 28.9% and an oedema % inhibition [6, 8] of 32.7%. It also gave an oedema % inhibition [6, 9] of 34.0%, an oedema % inhibition [6, 10] of 10.1% and an oedema % inhibition [6, 11] of 0.0%. It also gave an oedema % inhibition [6, 12] of 0.0%, an oedema % inhibition ([6]; 50 mg/Kg per os, 2 h) of 46.0% and an oedema % inhibition ([6]; 50 mg/Kg per os, 4 h) of 49.1%. The oedema % inhibition ([6]; 50 mg/Kg per os, 6 h) was 48.0%, the oedema % inhibition ([6]; 50 mg/Kg per os, 24 h) was 13.4% and the oedema % inhibition ([6]; 50 mg/Kg per os, 48 h) was 0.0%. The oedema % inhibition ([6]; 50 mg/Kg per os, 72 h) was 0.0%, the oedema % inhibition [6, 13] was 50.7% and the oedema % inhibition [6, 14] was 48.9%. For the same molecule, the oedema % inhibition [6, 15] was 42.0%, the oedema % inhibition [6, 16] was 11.2% and the oedema % inhibition [6, 17] was 0.0%. The oedema % inhibition [6, 18] was 0.0%, the oedema % inhibition ([6]; 100 mg/Kg per os, 2 h) was 60.0% and the oedema % inhibition ([6]; 100 mg/Kg per os, 4 h) was 55.2%. It also gave an oedema % inhibition ([6]; 100 mg/Kg per os, 6 h) of 69.7%, an oedema % inhibition ([6]; 100 mg/Kg per os, 24 h) of 18.1% and an oedema % inhibition ([6]; 100 mg/Kg per os, 48 h) of 0.0%. The oedema % inhibition ([6]; 100 mg/Kg per os, 72 h) was 0.0%, the oedema % inhibition [6, 19] was 69.8% and the oedema % inhibition [6, 20] was 69.0%. The oedema % inhibition [6, 21] was 63.0%, the oedema % inhibition [6, 22] was 13.1% and the oedema % inhibition [6, 23] was 0.0%. It also gave an oedema % inhibition [6, 24] of 0.0%.

With `Cc1ccc(C(=O)c2ccc(CC(=O)N3CCN(C)CC3)n2C)cc1` [Compound 3-b, 1-methyl-5-p-toluoylpyrrole-2-N-[(4-methyl)-1-piperazinyl] acetamide] the “% Protection” value ([1]; 5 mg/Kg i.p.) was 28.0%, the “% Protection” value ([1]; 5 mg/Kg per os) was 20.0% and the “% Protection” value ([1]; 10 mg/Kg i.p.) was 50.0%. The “% Protection” value ([1]; 10 mg/Kg per os) was 52.0%, the “% Protection” value ([1]; 20 mg/Kg i.p.) was 80.3% and the “% Protection” value ([1]; 20 mg/Kg per os) was 78.0%. For the same molecule, the “% difference in mucus secretion” value ([2]; 50 mg/Kg i.p., 3 h) was -12%, the “% difference in mucus secretion” value ([2]; 50 mg/Kg i.p., 6 h) was -10% and the “% difference in mucus secretion” value ([2]; 50 mg/Kg per os, 3 h) was -9%. For the same molecule, the “% difference in mucus secretion” value ([2]; 50 mg/Kg per os, 6 h) was -5%, the “% difference in mucus secretion” value ([2]; 75 mg/Kg i.p., 3 h) was -25% and the “% difference in mucus secretion” value ([2]; 75 mg/Kg i.p., 6 h) was -22%. The “% difference in mucus secretion” value ([2]; 75 mg/Kg per os, 3 h) was -18%, the “% difference in mucus secretion” value ([2]; 75 mg/Kg per os, 6 h) was -10% and the “% difference in mucus secretion” value ([2]; 100 mg/Kg i.p., 3 h) was -40%. The “% difference in mucus secretion” value ([2]; 100 mg/Kg i.p., 6 h) was -36%, the “% difference in mucus secretion” value ([2]; 100 mg/Kg per os, 3 h) was -36% and the “% difference in mucus secretion” value ([2]; 100 mg/Kg per os, 6 h) was -30%. The LD50 (in vivo [3]; ip) was 770 mg/kg, the LD50 (in vivo [3]; po) was 1200 mg/kg and the LD50 (in vivo [4]; ip) was 590 mg/kg. The LD50 (in vivo [4]; po) was 1000 mg/kg, the “% inhibition, cough amplitude” value ([5]; 50 mg/Kg i.p.) was 20% and the “% inhibition, cough frequency” value ([5]; 50 mg/Kg i.p.) was 28%. The “% inhibition, cough amplitude” value ([5]; 50 mg/Kg per os) was 18%, the “% inhibition, cough frequency” value ([5]; 50 mg/Kg per os) was 29% and the “% inhibition, cough amplitude” value ([5]; 75 mg/Kg i.p.) was 30%. For the same molecule, the “% inhibition, cough frequency” value ([5]; 75 mg/Kg i.p.) was 20%, the “% inhibition, cough amplitude” value ([5]; 75 mg/Kg per os) was 30% and the “% inhibition, cough frequency” value ([5]; 75 mg/Kg per os) was 18%. The “% inhibition, cough amplitude” value ([5]; 100 mg/Kg i.p.) was 52%, the “% inhibition, cough frequency” value ([5]; 100 mg/Kg i.p.) was 40% and the “% inhibition, cough amplitude” value ([5]; 100 mg/Kg per os) was 45%. The “% inhibition, cough frequency” value ([5]; 100 mg/Kg per os) was 39%, the oedema % inhibition ([6]; 25 mg/Kg per os, 2 h) was 28.1% and the oedema % inhibition ([6]; 25 mg/Kg per os, 4 h) was 33.4%. For the same molecule, the oedema % inhibition ([6]; 25 mg/Kg per os, 6 h) was 30.0%, the oedema % inhibition ([6]; 25 mg/Kg per os, 24 h) was 10.2% and the oedema % inhibition ([6]; 25 mg/Kg per os, 48 h) was 0.0%. The oedema % inhibition ([6]; 25 mg/Kg per os, 72 h) was 0.0%, the oedema % inhibition [6, 7] was 33.2% and the oedema % inhibition [6, 8] was 36.0%. It also gave an oedema % inhibition [6, 9] of 30.0%, an oedema % inhibition [6, 10] of 10.0% and an oedema % inhibition [6, 11] of 0.0%. For the same molecule, the oedema % inhibition [6, 12] was 0.0%, the oedema % inhibition ([6]; 50 mg/Kg per os, 2 h) was 49.1% and the oedema % inhibition ([6]; 50 mg/Kg per os, 4 h) was 48.0%. It also gave an oedema % inhibition ([6]; 50 mg/Kg per os, 6 h) of 49.7%, an oedema % inhibition ([6]; 50 mg/Kg per os, 24 h) of 15.2% and an oedema % inhibition ([6]; 50 mg/Kg per os, 48 h) of 0.0%. It also gave an oedema % inhibition ([6]; 50 mg/Kg per os, 72 h) of 0.0%, an oedema % inhibition [6, 13] of 52.3% and an oedema % inhibition [6, 14] of 55.6%. The oedema % inhibition [6, 15] was 58.9%, the oedema % inhibition [6, 16] was 11.2% and the oedema % inhibition [6, 17] was 0.0%. The oedema % inhibition [6, 18] was 0.0%, the oedema % inhibition ([6]; 100 mg/Kg per os, 2 h) was 69.7% and the oedema % inhibition ([6]; 100 mg/Kg per os, 4 h) was 68.0%. It also gave an oedema % inhibition ([6]; 100 mg/Kg per os, 6 h) of 69.0%, an oedema % inhibition ([6]; 100 mg/Kg per os, 24 h) of 35.0% and an oedema % inhibition ([6]; 100 mg/Kg per os, 48 h) of 8.9%. It also gave an oedema % inhibition ([6]; 100 mg/Kg per os, 72 h) of 0.0%, an oedema % inhibition [6, 19] of 73.4% and an oedema % inhibition [6, 20] of 77.1%. The oedema % inhibition [6, 21] was 72.9%, the oedema % inhibition [6, 22] was 25.6% and the oedema % inhibition [6, 23] was 1.4%. It also gave an oedema % inhibition [6, 24] of 0.0%.
